The nature of series [1]: Stability in mouse plasma. Type of series: in vitro ADME. Particulars: mouse, plasma. Put shortly:
(§1)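 Test compound at 3 μM (0.1% DMSO) was incubated in mouse or human plasma at 37 °C and sampled in duplicate at 0, 10, 20, 30, 40 and 60 min. Reactions were stopped with acetonitrile/formic acid containing internal standard. Remaining parent was measured by UPLC-MS/MS without a calibration curve.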

The nature of series [2]: Stability in mouse hepatocytes. The class given is in vitro ADME.
The test system of series [3] is PANK2 silenced human neuroblastoma IMR32 cells (PANK2−/−). The experiment in a line: Coenzyme A assay in PANK2 silenced cells (LC-MS quantification of free CoA). Particulars: compound added twice (24 h + 24 h), relative to 0.1% DMSO controls. The class given is cell-based. The procedure, abridged: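 PANK2 shRNA-silenced IMR32 neuroblastoma cells were treated with compound (0.1% DMSO) for 24 h, then re-dosed with fresh compound for a further 24 h at 37 °C. TFA extracts of 1×10^6 cells were assayed for free CoA by LC-MS/MS (MRM 768.1→261.6/136.1). Results are given as fold change versus DMSO controls.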

Series [4] in a line: Stability in human plasma. Type of series: in vitro ADME. Particulars: human, plasma, 37° C. The procedure, abridged:
as §1

Series [5] in a line: Chemical stability in aqueous solution (phosphate buffered saline, NMR). The conditions noted are these: 10 mM phosphate buffer pH 7.5, 37° C.
Description: (§2) To measure chemical stability in aqueous solution, the half-life (t1/2), or time needed for the concentration to decrease by half, was determined for select compounds in phosphate buffered saline solution. Compounds were dissolved in a solution containing 10 mM phosphate buffer (pH 7.5) and 5% of D2O to a final concentration of −1 mM. All spectra were obtained at 37° C. on a Bruker Avance 600 NMR spectrometer equipped with an inverse broad-band probe with z-gradients. Data were obtained every 15 min for a total time period of 4 h or longer, according to the observed stability. ^31P NMR was performed at 242.55 MHz, with gated decoupling of the protons. An observation frequency range of 14619.9 Hz and 32 K complex data points were used for acquisition. A pulse angle of 90° and a 4-sec pulse cycle were utilized. Thirty-two accumulations were obtained before Fourier transformation of the free induction decay. ^1H NMR spectra were acquired using the 1DNOESY experiment with water presaturation for better solvent suppression. An observation frequency range of 12019.23 Hz, a 10-sec pulse cycle, and 32 K complex data points were used for acquisition. Sixty-four scans were added prior to Fourier transformation. Integral data were obtained using the TopSpin software.
(§3) Stability was determined based on analysis of disappearance of the compounds as a function of incubation time. Quantification of test compounds was measured as a peak area relative to an internal standard. The elimination constant, k, was calculated by plotting mean disappearance values on a semi-logarithmic scale and fitting with a best fit linear regression. The half-life (t1/2) expressed in hours was derived using Equation 1: t1/2=ln2/(−k). Equation 1:
The nature of series [6]: Stability in human hepatocytes. The class given is in vitro ADME. Particulars: for half-life at 5 µM: t1/2, Human Hepatocytes; for half-life: Diastereoisomer A (upfield shift in 31P NMR), 5 μM, 1 million cells/ml, 37° C., human hepatocytes, read-out: t1/2, Human Hepatocytes, Diastereoisomer A (converted).
Another series is described as follows: physchem. The conditions noted are these: buffer, phosphate buffered saline, 10 mM phosphate buffer pH 7.5, 37° C.
Series [7] in a line: Permeability in porcine brain endothelial cell blood-brain barrier model. Type of series: in vitro ADME. Particulars: pig (endothelial cells), co-cultured with rat astrocytes, pH 7.4, PBECs/As blood-brain barrier model, luminal to basal; Diastereoisomer A; read-out: Papp Diastereoisomer A. An excerpt:
Compounds disclosed herein show the potential to reach mammalian brain by crossing the blood-brain barrier (BBB) from systemic circulation. […] The porcine brain endothelial cell permeability assay is an in vitro BBB model to be used for the prediction of central nervous system (CNS) drug permeability in vivo and for ranking or prioritization of compounds according to their permeability. This system can also be used for mechanistic studies and drug delivery strategies via receptor-mediated transport (transcytosis). The system is a two-dimensional co-culture, non-contact model of two types of primary cells: primary brain endothelial cells obtained from fresh porcine brains, and primary rat astrocytes, obtained from neonatal rats. This ensures barrier formation and functional expression of key transporters.
The endothelial cells were cultured on rat-tail collagen type I and human fibronectin coated Transwell polycarbonate inserts (surface area 0.7 cm^2; pore size 0.4 μm) and the inserts were placed in 24-well plates containing confluent rat astrocytes. This system allows for the formation of a differentiated BBB model suitable for compound permeability in 10 days.
On the day of the experiment, culture medium was removed and cells were pre-incubated for 30 min with HBSS containing 20 mM Hepes pH 7.4 and 0.1% BSA. Donor volume (apical) was 400 μl and receiver volume (basal) 900 μl. Compounds were diluted in assay medium (at the desired concentration) and added to the luminal side (to mimic blood to brain passage). Transport was measured usually after 60 min by detecting the amount of compound from the basal (brain side). The integrity of the cell layers was assessed by measuring the transendothelial electrical resistance (TEER) and by monitoring FITC-dextran (40 KDa) permeation. Inserts with TEER values […] were selected for permeability studies. As FITC-dextran cannot freely permeate lipophilic barriers, a high degree of FITC-dextran transport indicates poor integrity of the cell layer and wells with high FITC-dextran permeability were excluded. FITC-dextran was included as internal control in each insert used for permeability studies. Fluorescence was measured using a fluorimetric detector. Radioactivity was measured by scintillation counting. For LC-MS/MS analysis, aliquots (200 μl) from the basal compartment were diluted with an equal volume of 100% acetonitrile containing 0.1% formic acid, centrifuged to remove cell debris, and evaporated under N2. After reconstitution, samples were analyzed by LC-MS/MS. Mass balance was determined considering the amount of compound recovered in the donor and receiver chamber at the end of the assay relative to the amount added to the donor chamber at time 0.
Permeability was defined as the apparent permeability coefficient (Papp), which is a measure of the appearance rate of the compound in the receiver chamber, expressed in cm/s. Papp is calculated according the following equation: Papp[cm/sec]=Vd*ΔMr/A*Md*Δt, Equation 2: where
Vd=volume in the donor compartment in cm^3 or mL;
ΔMr=total amount of compound in the receiver compartment after t seconds;
Md=donor amount (added at time 0)
Δt=time measured in seconds
A=filter area in cm^2 (for 24 well plate, A=0.7 cm^2).
To correct for the contribution of filter and substrate, Papp was also determined for the cell-free system. Permeability of the endothelial cell layer was determined using the following equation: […], Equation 3: where
Ptotal=the P of the total system,
Pf=P for the cell-free filter, and
Pe=P for the endothelial cell layer alone. In this equation, the total resistance of the system towards passage of a substance is additively composed of two […] resistances: that of the cell monolayer and that of the filter.

The mark [8] stands for this setting: t1/2, Mouse Hepatocytes, Diastereoisomer A.
The mark [9] stands for this setting: pH 7.5, t1/2 (h) Diastereoisomer A, Diastereoisomer A = upfield shift in the 31P NMR.
Setting [10] is: pH 7.5, t1/2 (h) Diastereoisomer B, Diastereoisomer B.
Where [11] appears, read: Diastereoisomer A (upfield shift in 31P NMR), 5 μM, 1 million cells/ml, 37° C., mouse hepatocytes, read-out: t1/2, Mouse Hepatocytes, Diastereoisomer A (converted).

We go through seven molecules from patent US10364263B2, “Cyclic phosphates and cyclic phosphoramidates for the treatment of neurologic disorders” (Retrophin, Inc., priority 2015, dated 2019).

Description for physchem: as §2, §3

Turning to `COC(=O)[C@H](C)NP1(=O)OCC(C)(C)[C@H](C(=O)NCCC(=O)OCCN2CCCC2)O1` (stereo partly drawn) [compound 19, methyl ((4R)-5,5-dimethyl-2-oxido-4-((3-oxo-3-(2-(pyrrolidin-1-yl)ethoxy)propyl)carbamoyl)-1,3,2-dioxaphosphinan-2-yl)-L-alaninate], the half-life at 3 µM in series [1] is below 9.6 min; in series [4] (Diastereoisomer A (upfield shift in 31P NMR), read-out: t1/2, Human Plasma, Diastereoisomer A (converted)), 0.45 h; in series [4] (Diastereoisomer B, read-out: t1/2, Human Plasma, Diastereoisomer B (converted)) it was above 1 h. Moreover, the “t1/2, Mouse Plasma, Diastereoisomer B” value in series [1] (3 µM) was below 9.6 min. Further, the half-life at 5 µM in series [2] (setting [8]) is 0.37 h; in series [2] (t1/2, Mouse Hepatocytes, Diastereoisomer B), 0.31 h; in series [6] (Diastereoisomer A), 1.26 h; in series [6] (Diastereoisomer B), 1.16 h. In series [3], the “PANK2−/− CoA (Fold Increase): fold increase in Coenzyme A (CoA) levels relative to controls” value came to 1.73 Fold Increase. In addition, the half-life at 1 mM in series [5] (setting [9]) is 4.7 h; in series [5] (setting [10]) it was 3.7 h.

Turning to `COC(=O)CCNC(=O)[C@@H]1OP(=O)(N[C@H]2CN[C@@H](C(=O)OC)C2)OCC1(C)C` (stereo partly drawn) [compound 132, methyl (2R,4R)-4-(((4R)-4-((3-methoxy-3-oxopropyl)carbamoyl)-5,5-dimethyl-2-oxido-1,3,2-dioxaphosphinan-2-yl)amino) pyrrolidine-2-carboxylate], the figures for the half-life (in “physchem” (setting [9]); in “physchem” (setting [10]); in series [6]) were 4.8 h, 3.6 h and 2.39 h, respectively. Also, the half-life at 5 µM in series [2] (setting [11]) is 0.91 h. In series [3], the “PANK2−/− CoA (Fold Increase): fold increase in Coenzyme A (CoA) levels relative to controls” value came to 1.88 Fold Increase.

Take `COC(=O)CCNC(=O)[C@@H]1O[P@@](=O)(NCc2ccccc2)OCC1(C)C` [Compound No. 115, Methyl 3-((2R,4R)-2-(benzylamino)-5,5-dimethyl-2-oxido-1,3,2-dioxaphosphinane-4-carboxamido)propanoate]: the figures for the half-life (in “physchem” (setting [9]); in series [6]) were above 60 h and 0.64 h, respectively. For the same molecule, the Papp A→B at 60 min in series [7] was 4.03 ×10⁻⁶ cm/s. Further, the half-life at 5 µM in series [2] (setting [11]) is below 0.25 h.

As to `COC(=O)CCNC(=O)[C@@H]1OP(=O)(NCC2CCCO2)OCC1(C)C` (stereo partly drawn) [compound 116, methyl 3-((4R)-5,5-dimethyl-2-oxido-2-(((tetrahydrofuran-2-yl)methyl)amino)-1,3,2-dioxaphosphinane-4-carboxamido)propanoate], the half-life in the series “physchem” (setting [9]) and in the series “physchem” (setting [10]) was above 40 h throughout.

For the molecule `COC(=O)CCNC(=O)[C@@H]1O[P@@](=O)(OCc2ccccc2)OCC1(C)C` [compound 56, methyl 3-((2S,4R)-2-(benzyloxy)-5,5-dimethyl-2-oxido-1,3,2-dioxaphosphinane-4-carboxamido)propanoate], the Papp A→B at 60 min in series [7] came out at 18.7 ×10⁻⁶ cm/s. Further, the half-life at 5 µM in series [2] (setting [8]) and in series [6] (Diastereoisomer A) was below 0.25 h each time. The half-life at 1 mM in series [5] (setting [9]) is 4.6 h.

Regarding `COC(=O)CCNC(=O)[C@@H]1OP(N)(=O)OCC1(C)C` (stereo partly drawn) [compound 114, methyl 3-((4R)-2-amino-5,5-dimethyl-2-oxido-1,3,2-dioxaphosphinane-4-carboxamido)propanoate], the half-life in the series “physchem” (setting [9]) and in “physchem” (setting [10]) was above 40 h throughout.

Take `CCC(CC)COC(=O)[C@H](C)NP1(=O)OCC(C)(C)[C@H](C(=O)NCCC(=O)OC)O1` (stereo partly drawn) [compound 7, 2-ethylbutyl ((4R)-4-((3-methoxy-3-oxopropyl)carbamoyl)-5,5-dimethyl-2-oxido-1,3,2-dioxaphosphinan-2-yl)-L-alaninate]: the half-life in “physchem” (setting [9]) is above 40 h. Moreover, in series [3], the “PANK2−/− CoA (Fold Increase): fold increase in Coenzyme A (CoA) levels relative to controls” value is given as 1.56 Fold Increase.
